For the assay, the system named is vitrectomy-induced PSC formation. Nature of the assay: Post-vitrectomy posterior subcapsular cataract (PSC) formation in Dutch Belted rabbits, surgical irrigating solution. In kind it is in vivo, Dutch Belted rabbit. To be noted: for Incidence of Lens Line Suture Distortion: irrigating solution w/1.0 μM Compound X, rabbit, affected lenses/total lenses. As to the method: The following example illustrates the reduction in frequency of post-vitrectomy cataract formation, employing a surgical irrigating solution containing a compound of formula (I).
Age-matched, Dutch Belted rabbits were used in this study. At 2.5 months of age, unilateral, partial vitrectomy (vitreous replaced by irrigating solution) was performed. Briefly, rabbits (1.5-2.0 kg) were prepared for surgery by subcutaneous administration of atropine to maintain heart rate and limit lung and oropharynx fluid accumulation. Animals were then anesthetized by intramuscular administration of ketamine (45 mg/kg) and xylazine (6 mg/kg). Anesthesia was maintained by re-administration of half-doses of anesthetic every 35-45 minutes as needed. For pupil dilatation, phenylephrine HCL and cyclopentolate HCL were administered topically to the surgical eye (OD). The nonsurgical eye (OS) received Duratears and was then taped shut to prevent loss of moisture. Immediately prior to surgery, proparacaine was administered topically to the OD eye and a speculum inserted. […] Two sutures were placed in a figure eight (4 and 8 o'clock position), about 4.5 mm from the limbus, to accommodate the outer port suction cutter and endoilluminator, respectively. An inner port infusion cannula was sutured through the pars plana (6 o'clock position) about 4 mm from the limbus. Two additional punctures were made with a V-lance stiletto knife (20 gauge) for the instrument entry through the outer ports. Two sutures were then placed (3 and 9 o'clock position) in the sclera, approximately 1 mm from the limbus, to facilitate manipulation of the eye and to secure the metal contact lens holder. Viscoat® (125 μL) was then applied to the cornea followed by the placement of a wide angle lens onto the cornea. The vitreous was then removed using the SERIES TEN THOUSAND® OCUTOME® posterior-segment surgical system for 10 minutes by a combination of cutting (500 cuts/minute) and suction (90 mm Hg), while continually supplying BSS® or BSS Plus® irrigating solution, or an irrigating solution containing Compound X (1.0 μM) (at room temperature), at a rate of approximately 3.5 mL/minute and an ocular fluid pressure of 35 mm Hg. Upon completion of the surgery, instruments were withdrawn, infusion pressure reduced to 22 mm Hg, sclerotomies closed, and the conjunctiva reapproximated at the limbus with sutures. A typical surgical procedure required approximately 40-50 minutes, utilizing approximately 100 mL of irrigation solution. The amount of vitreous replaced was approximately 1.5 mL. At various times following vitrectomy, lenses were excised and immediately examined by low resolution light microscopy. Photographs were taken with a digital camera for a later assessment of line suture defects.
The results of this study document the early development of PSC in the Dutch Belted rabbit following vitrectomy, as quantified by scoring for the presence of distorted suture branches and sub-branches. […] Comparison of the effect of vitrectomy with standard irrigation and the Compound X-supplemented irrigation 3 month post-surgery indicated a high incidence of an acute distortion of normally straight line sutures for animals of the standard irrigation treatment groups (Table 1) but not the Compound X treated animals. […] This abnormal condition was further aggravated at […] post-vitrectomy, as recognized by the extension of existing sub-branches and the development of additional small sub-branches. […] This condition was essentially maintained throughout twelve months post-vitrectomy.
In contrast, 86% (or 6 out of 7 lenses) of the lenses from the Compound X treatment group were unaffected by vitrectomy with an average suture defect score of +1.7 at this same time point. The lens scores of animals treated with the Compound X supplemented therapeutic irrigation solution were essentially identical to those of naive controls (scoreavg=+1.63). […]

Structures are written as SMILES.

`COc1ccc2cc([C@H](C)C(=O)OCC[C@@]3(C)CCc4c(C)c(O)c(C)c(C)c4O3)ccc2c1` [Compound X, (S)-6-methoxy-[…]-methyl-naphthaleneacetic acid, (R)-2-(3,4-dihydro-6-hydroxy-2,5,7,8-tetramethyl-2H-1-benzopyran-2-yl)ethyl ester]: under “3-12 months post-surgery, compared to naive controls, 1.0 μM in irrigating solution during vitrectomy”, the “rate of lens growth” value is listed as “essentially identical to that of naive controls”. The “Incidence of Lens Line Suture Distortion” value was 0/8 (3 month post-Vitrectomy), 1/7 (6 month post-Vitrectomy) and 1/7 (12 month post-Vitrectomy). Also, for the setting “12 months post-vitrectomy, 6 out of 7 lenses, 1.0 μM in irrigating solution”, the “lenses unaffected by vitrectomy” value was determined as 86%. Moreover, the “average suture defect score” value (12 months post-vitrectomy, scale 0 (straight line suture) to +6 (very crooked suture pattern with many sub-branches or mature cataract), naive controls +1.63) is recorded as “+1.7”. Where the note is “six months post-surgery, essentially maintained throughout twelve months post-vitrectomy, low resolution light microscopy”, the “lens suture appearance (distortion, sub-branches)” value is listed as “only slightly distorted suture branches which, on average, were devoid of sub-branches”.

For the origin of these results see US6433007B1, “Methods for the prevention and treatment of post-surgical complications” (Alcon Manufacturing, Ltd., priority 1998, dated 2002).
